Where a name gives a salt, the structure may show the parent alone.
Test system: prurigo nodularis patients
Experiment: Example 2 trial: average itch intensity NRS score
Format: in vivo, human
Conditions: 180 mg BID; end of treatment; 95% CI −2.764, −0.134; P=0.031
Procedure: This clinical study was a double-blind, placebo-controlled trial in which prurigo nodularis patients were randomized in a 1:1:1 ratio to nalbuphine ER tablets to a target dose of 90 mg twice daily (BID), nalbuphine HCl ER tablets 180 mg BID, or placebo tablets BID. Use of nonsedating rescue antihistamine medications (non-first generation H1-antihistamines [Simons F E. Advances in H1-antihistamines. N Engl J Med. 2004; 351(21):2203-17.]) were allowed in the study but their use was recorded. Cleansing emollients were allowed for hygiene purposes provided there were no active substances (such as menthol or urea) contained in the lotion. A placebo comparator was chosen because there are no approved treatments for prurigo nodularis in the United States or Europe or an established standard of care that could serve as an active control.
(1) The proportion of patients with at least a 30% reduction in the 7-day average daily diary-reported NRS itch intensity from baseline to the evaluation visit (Week 10). (2) The proportion of patients with at least a 50% reduction in the 7-day average daily diary-reported NRS itch intensity from baseline to the evaluation visit (Week 10). […] (5) Prurigo nodularis skin lesions, as quantitatively measured by the Prurigo Activity Score (PAS) recorded at baseline and during evaluation visit (Week 10). […]

SMILES: Oc1ccc2c3c1OC1[C@@H](O)CC[C@@]4(O)[C@@H](C2)N(CC2CCC2)CC[C@]314 (stereo partly drawn) [Nalbuphine, 17-(cyclobutylmethyl)-4,5α-epoxymorphinian-3, 6α, 14-triol, hydrochloride]
- LS mean treatment difference in change from baseline average itch intensity NRS score versus placebo: −1.45

From patent US20220347171A1, “TREATMENT OF PRURIGO NODULARIS” (TREVI THERAPEUTICS, INC., priority 2016, published 2022)
